Assay results reported in patent US20100168228A1, “NOVEL CHEMOTHERAPEUTIC AGENTS AGAINST INFLAMMATION AND CANCER” (RELIANCE LIFE SCIENCES PVT. LTD., priority 2006, published 2010).

Key:
[1] = tested on: TNFα; assay: Bioassay of TNFα production by LPS activated RAW 264.7 macrophages using L929 cell line; format: cell-based; settings: Mus musculus; L929 + ActD + supernatant from LPS + compound (10 μM) treated RAW 264.7 macrophage; crystal violet; mean ± S.D. of triplicate; read-out: PERCENTAGE CELL SURVIVAL ± S.D.
Description: Measurement of TNFα in culture medium or supernatant is performed using immunoassay and bioassay. Bioassay was used for the measurement of bioactive TNFα production in the culture medium.
TNFα secretion into the medium by LPS activated macrophage was assayed using L929 tumorigenic murine cells (ATCC) specifically sensitive to TNFα. L929 cell cytotoxicity assay was performed by a modified method (Sano et al., The Journal of Immunology, 1999, 163: 387-395 The Journal of Immunology, 1999, 163: 387-395) based on that described elsewhere (Flick D A, Gifford G E. J Immunol Methods. 1984 Mar. 30; 68(1-2): 167-175). Briefly, the L929 cells (log phase cells) were seeded into a flat bottom 96 well plates (6×10^4/well) in 100 μl volume of RPMI 1640 containing 2% FCS and incubated overnight at 37° C. in a 5% CO2 incubator. A working dilution of the culture supernatant collected from LPS (200 ng/ml) activated macrophage in a volume of 100 μl per well was first tested to obtain 70-75% cytotoxicity equivalent to […] of recombinant TNFα standard to the TNFα sensitive L929 cell line. After incubation of the L929 cells appropriate fixed dilution of the culture supernatant collected from the compound treated (10 μM) wells, containing the LPS stimulated macrophages in a volume of 100 μl with 2 μg/ml Actinomycin D (Act D) was taken and added to the L929 cells and the cells were incubated at room temperature for 15 min followed by 18 h incubation at 37° C. overnight with 5% CO2. On the next day the medium was removed and the cells were stained with 0.2% (w/v) crystal violet for 10 minutes. The wells were gently rinsed with water, and 33% acetic acid (100 μl/well) was added to extract the retained crystal violet. The absorbance at 570 nm was finally measured.
Tumor necrosis factor-α can cause direct cytotoxicity to the lung fibroblast cell line (L929). Bioassay of TNF α is designated on the basis of this cytotoxicity of TNF α, which can be used for the identification of murine TNF α activity in tissue culture supernatants. Culture supernatant collected from the synthetic molecules treated well containing LPS stimulated macrophage modulated the extent of cytotoxicity to the L929 cells (see Table 1).

[2] = tested on: RAW 264.7 cells; assay: Nitrite quantification (Griess) in LPS stimulated macrophages; format: cell-based, mouse; settings: RAW 264.7 + LPS (200 ng/ml) + 10 μM compound, 24 h; LPS + DMSO control 14.560, basal 0.782
Description: NO2^− accumulation was used as an indicator of Nitric Oxide (NO) production in the medium as described previously (Green et al., 1982 Anal Biochem 126, 131-138). […] The isolated supernatants were mixed with an equal volume of Griess reagent (1% sulfanilamide, 0.1% naphthylenediamine dihydrochloride, and 2% phosphoric acid) and incubated at room temperature for 15 min. NaNO2 was used to generate a standard curve, and nitrite production was determined by measuring the optical density at 540 nm.
To estimate the anti-inflammatory effects of all the synthetic molecules listed in this study, we measured the accumulation of nitrite, the stable metabolite of NO, in the culture media using Griess reagent.
To investigate the effect of CAMVE on NO production, we measured the accumulation of nitrite, the stable metabolite of NO, in the culture media using Griess reagent. To investigate the effect of CAMVE on NO production, Raw 264.7 cells, pretreated with indicated concentrations of CAMVE for 1 h were incubated with LPS (250 ng/ml) for 24 h.

Row | Structure (SMILES) | viability at 10 µM [1] [%] | CONCENTRATION OF NITRITE μM ± SD [2] [µM]
1 | COC(=O)c1ccc(OC(=O)c2ccc(O)c(OC)c2)c(OC)c1 [compound 10, 2-methoxy-4-(methoxycarbonyl)phenyl 4-hydroxy-3-methoxy benzoate] | 51.6 ± 1.4 | 6.849 ± 0.806
2 | COC(=O)/C=C/c1ccc(OC(=O)/C=C/c2ccc(O)cc2)c(OC)c1 [compound 18, 2-methoxy-4-[(1E)-3-methoxy-3-oxoprop-1-en-1-yl]phenyl (2E)-3-(4-hydroxyphenyl)acrylate] | 50.4 ± 1.57 | 7.960 ± 0.437
